Measured values from PubChem BioAssay AID2060887 (Molecular Pharmacology Branch, DTP, NCI, 2025).

Tested on: 782815-120-R-J1-PDC complex spheroid viability
Assay: Anticancer human tumor 782815-120-R-J1-PDC patient-derived colon adenocarcinoma cell line growth inhibition [RAS]
Conditions: for IC50: curve of first compound; for viability, T/C: stronger effect = lower value
Outline: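 Agents were tested in combination matrices in half-log decrements from a top concentration at or near clinical Cmax (10 microM if undetermined). Targets were multi-cell spheroids of tumour lines plus HUVEC and MSC stromal cells.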
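Note: spheroids exposed to compounds for 7 days before reading.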
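Throughout, for viability, T/C: 100% = DMSO vehicle control viability.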

Q: How did the IC50 (second compound 0.000949 µM) turn out when `Cc1nc(N2CCC3(CC2)COC(C)C3N)c(CO)nc1Sc1ccnc(N)c1Cl` (centres undefined) + CCn1c(-c2cc(N3CCN(C)CC3)cnc2C(C)OC)c2c3cc(ccc31)-c1csc(n1)CC(NC(=O)C1CC1C)C(=O)N1CCCC(N1)C(=O)OCC(C)(C)C2 was run?
A: > 10 µM

Q: And the IC50 (second compound 0.003 µM)?
A: > 10 µM

Q: What about the IC50 (second compound 0.00949 µM) of the same molecule?
A: < 0.0316 µM

Q: And the IC50 (second compound 0.03 µM)?
A: < 0.0316 µM

Q: What about the IC50 (second compound 0.0949 µM) of the same molecule?
A: < 0.0316 µM

Q: What about the IC50 (second compound 0.3 µM) of the same molecule?
A: < 0.0316 µM

Q: What about the viability, T/C (second compound 0.000949 µM, first compound 0.0316 µM) of the same molecule?
A: 73.5%

Q: What about the viability, T/C (second compound 0.000949 µM, first compound 0.1 µM) of the same molecule?
A: 79.3%

Q: And the viability, T/C (second compound 0.000949 µM, first compound 0.316 µM)?
A: 74.7%

Q: What about the viability, T/C (second compound 0.000949 µM, first compound 1 µM) of the same molecule?
A: 73%

Q: And the viability, T/C (second compound 0.000949 µM, first compound 3.16 µM)?
A: 69.4%

Q: What about the viability, T/C (second compound 0.000949 µM, first compound 10 µM) of the same molecule?
A: 69.9%

Q: And the viability, T/C (second compound 0.003 µM, first compound 0.0316 µM)?
A: 58.5%

Q: What about the viability, T/C (second compound 0.003 µM, first compound 0.1 µM) of the same molecule?
A: 54.6%

Q: And the viability, T/C (second compound 0.003 µM, first compound 0.316 µM)?
A: 56%

Q: And the viability, T/C (second compound 0.003 µM, first compound 1 µM)?
A: 49%

Q: What about the viability, T/C (second compound 0.003 µM, first compound 3.16 µM) of the same molecule?
A: 58.4%

Q: What about the viability, T/C (second compound 0.003 µM, first compound 10 µM) of the same molecule?
A: 49%

Q: And the viability, T/C (second compound 0.00949 µM, first compound 0.0316 µM)?
A: 29.1%

Q: What about the viability, T/C (second compound 0.00949 µM, first compound 0.1 µM) of the same molecule?
A: 28.2%

Q: What about the viability, T/C (second compound 0.00949 µM, first compound 0.316 µM) of the same molecule?
A: 24.1%

Q: What about the viability, T/C (second compound 0.00949 µM, first compound 1 µM) of the same molecule?
A: 32.1%

Q: What about the viability, T/C (second compound 0.00949 µM, first compound 3.16 µM) of the same molecule?
A: 30.3%

Q: And the viability, T/C (second compound 0.00949 µM, first compound 10 µM)?
A: 28.3%

Q: What about the viability, T/C (second compound 0.03 µM, first compound 0.0316 µM) of the same molecule?
A: 17.8%

Q: And the viability, T/C (second compound 0.03 µM, first compound 0.1 µM)?
A: 19%

Q: What about the viability, T/C (second compound 0.03 µM, first compound 0.316 µM) of the same molecule?
A: 18.6%

Q: And the viability, T/C (second compound 0.03 µM, first compound 1 µM)?
A: 18.5%

Q: What about the viability, T/C (second compound 0.03 µM, first compound 3.16 µM) of the same molecule?
A: 22.9%

Q: And the viability, T/C (second compound 0.03 µM, first compound 10 µM)?
A: 19.3%

Q: What about the viability, T/C (second compound 0.0949 µM, first compound 0.0316 µM) of the same molecule?
A: 15.9%

Q: What about the viability, T/C (second compound 0.0949 µM, first compound 0.1 µM) of the same molecule?
A: 17%

Q: And the viability, T/C (second compound 0.0949 µM, first compound 0.316 µM)?
A: 14.5%

Q: What about the viability, T/C (second compound 0.0949 µM, first compound 1 µM) of the same molecule?
A: 15.5%

Q: What about the viability, T/C (second compound 0.0949 µM, first compound 3.16 µM) of the same molecule?
A: 17.3%

Q: And the viability, T/C (second compound 0.0949 µM, first compound 10 µM)?
A: 15.4%

Q: What about the viability, T/C (second compound 0.3 µM, first compound 0.0316 µM) of the same molecule?
A: 14.3%

Q: And the viability, T/C (second compound 0.3 µM, first compound 0.1 µM)?
A: 13.8%

Q: What about the viability, T/C (second compound 0.3 µM, first compound 0.316 µM) of the same molecule?
A: 15.9%

Q: And the viability, T/C (second compound 0.3 µM, first compound 1 µM)?
A: 16.4%

Q: And the viability, T/C (second compound 0.3 µM, first compound 3.16 µM)?
A: 21.3%

Q: What about the viability, T/C (second compound 0.3 µM, first compound 10 µM) of the same molecule?
A: 18.6%

Q: What does the source list for `CCN1CCN(Cc2ccc(Nc3ncc(F)c(-c4cc(F)c5nc(C)n(C(C)C)c5c4)n3)nc2)CC1` + C#Cc1c(F)ccc2cc(O)cc(-c3ncc4c(N5CC6CCC(C5)N6)nc(OCC56CCCN5CC(F)C6)nc4c3F)c12?
A: IC50 (second compound 0.0316 µM): > 1 µM; IC50 (second compound 0.1 µM): > 1 µM; IC50 (second compound 0.316 µM): > 1 µM; IC50 (second compound 1 µM): > 1 µM; IC50 (second compound 3.16 µM): > 1 µM; IC50 (second compound 10 µM): > 1 µM; viability, T/C (second compound 0.0316 µM, first compound 0.00316 µM): 103%; viability, T/C (second compound 0.0316 µM, first compound 0.01 µM): 105%; viability, T/C (second compound 0.0316 µM, first compound 0.0316 µM): 112%; viability, T/C (second compound 0.0316 µM, first compound 0.1 µM): 102%; viability, T/C (second compound 0.0316 µM, first compound 0.316 µM): 109%; viability, T/C (second compound 0.0316 µM, first compound 1 µM): 123%; viability, T/C (second compound 0.1 µM, first compound 0.00316 µM): 107%; viability, T/C (second compound 0.1 µM, first compound 0.01 µM): 104%; viability, T/C (second compound 0.1 µM, first compound 0.0316 µM): 95.8%; viability, T/C (second compound 0.1 µM, first compound 0.1 µM): 104%; viability, T/C (second compound 0.1 µM, first compound 0.316 µM): 113%; viability, T/C (second compound 0.1 µM, first compound 1 µM): 130%; viability, T/C (second compound 0.316 µM, first compound 0.00316 µM): 108%; viability, T/C (second compound 0.316 µM, first compound 0.01 µM): 101%; viability, T/C (second compound 0.316 µM, first compound 0.0316 µM): 100%; viability, T/C (second compound 0.316 µM, first compound 0.1 µM): 110%; viability, T/C (second compound 0.316 µM, first compound 0.316 µM): 106%; viability, T/C (second compound 0.316 µM, first compound 1 µM): 119%; viability, T/C (second compound 1 µM, first compound 0.00316 µM): 110%; viability, T/C (second compound 1 µM, first compound 0.01 µM): 109%; viability, T/C (second compound 1 µM, first compound 0.0316 µM): 108%; viability, T/C (second compound 1 µM, first compound 0.1 µM): 103%; viability, T/C (second compound 1 µM, first compound 0.316 µM): 111%; viability, T/C (second compound 1 µM, first compound 1 µM): 113%; viability, T/C (second compound 3.16 µM, first compound 0.00316 µM): 103%; viability, T/C (second compound 3.16 µM, first compound 0.01 µM): 99.2%; viability, T/C (second compound 3.16 µM, first compound 0.0316 µM): 101%; viability, T/C (second compound 3.16 µM, first compound 0.1 µM): 104%; viability, T/C (second compound 3.16 µM, first compound 0.316 µM): 128%; viability, T/C (second compound 3.16 µM, first compound 1 µM): 119%; viability, T/C (second compound 10 µM, first compound 0.00316 µM): 109%; viability, T/C (second compound 10 µM, first compound 0.01 µM): 107%; viability, T/C (second compound 10 µM, first compound 0.0316 µM): 95.3%; viability, T/C (second compound 10 µM, first compound 0.1 µM): 107%; viability, T/C (second compound 10 µM, first compound 0.316 µM): 120%; viability, T/C (second compound 10 µM, first compound 1 µM): 125%
